We go through six compounds from PubChem BioAssay AID1259407 (Chemical Carcinogenesis Research Information System (CCRIS), 2018).

The series relates to CCRIS mutagenicity, Ames/micronucleus/aberration tests. The series can be described thus: CCRIS mutagenicity studies.
The mark [1] stands for this setting: Test System: AMES SALMONELLA TYPHIMURIUM, Strain/Indicator: TA98, Metabolic Activation: HAMSTER, LIVER, S-9, AROCLOR 1254 (10%), Method: PREINCUBATION
[2] abbreviates: Test System: AMES SALMONELLA TYPHIMURIUM, Strain/Indicator: TA98, Metabolic Activation: NONE, Method: PREINCUBATION
Setting [3] is: Test System: AMES SALMONELLA TYPHIMURIUM, Strain/Indicator: TA98, Metabolic Activation: RAT, LIVER, S-9, AROCLOR 1254 (10%), Method: PREINCUBATION
The mark [4] stands for this setting: Test System: AMES SALMONELLA TYPHIMURIUM, Strain/Indicator: TA100, Metabolic Activation: HAMSTER, LIVER, S-9, AROCLOR 1254 (10%), Method: PREINCUBATION
Setting [5] is: Test System: AMES SALMONELLA TYPHIMURIUM, Strain/Indicator: TA100, Metabolic Activation: NONE, Method: PREINCUBATION
Where [6] appears, read: Test System: AMES SALMONELLA TYPHIMURIUM, Strain/Indicator: TA100, Metabolic Activation: RAT, LIVER, S-9, AROCLOR 1254 (10%), Method: PREINCUBATION
[7] abbreviates: Test System: AMES SALMONELLA TYPHIMURIUM, Strain/Indicator: TA1535, Metabolic Activation: HAMSTER, LIVER, S-9, AROCLOR 1254 (10%), Method: PREINCUBATION
Setting [8] is: Test System: AMES SALMONELLA TYPHIMURIUM, Strain/Indicator: TA1535, Metabolic Activation: NONE, Method: PREINCUBATION
Setting [9] is: Test System: AMES SALMONELLA TYPHIMURIUM, Strain/Indicator: TA1535, Metabolic Activation: RAT, LIVER, S-9, AROCLOR 1254 (10%), Method: PREINCUBATION
Where [10] appears, read: Test System: AMES SALMONELLA TYPHIMURIUM, Strain/Indicator: TA1537, Metabolic Activation: HAMSTER, LIVER, S-9, AROCLOR 1254 (10%), Method: PREINCUBATION
The mark [11] stands for this setting: Test System: AMES SALMONELLA TYPHIMURIUM, Strain/Indicator: TA1537, Metabolic Activation: NONE, Method: PREINCUBATION
[12] abbreviates: Test System: AMES SALMONELLA TYPHIMURIUM, Strain/Indicator: TA1537, Metabolic Activation: RAT, LIVER, S-9, AROCLOR 1254 (10%), Method: PREINCUBATION
The mark [13] stands for this setting: Test System: AMES SALMONELLA TYPHIMURIUM, Strain/Indicator: TA98, Metabolic Activation: NONE, Method: STANDARD PLATE.

Active and inactive are the calls of the source. The rule behind the calls is not given here.

As for `CC(CCN(C)C)N(C)C` (configuration not stated), the mutagenic call by setting is: under setting [1], “inactive; negative”; under setting [2], “inactive; negative”; under setting [3], “inactive; negative”; (Test System: AMES SALMONELLA TYPHIMURIUM, Strain/Indicator: TA98, Metabolic Activation: RAT, LIVER, S-9, PCB, Method: PREINCUBATION) “inactive; negative”; under setting [4], “inactive; negative”; under setting [5], “inactive; negative”. For the same compound, the mutagenic call was “inactive; negative” under setting [6]; “inactive; negative” (Test System: AMES SALMONELLA TYPHIMURIUM, Strain/Indicator: TA100, Metabolic Activation: RAT, LIVER, S-9, PCB, Method: PREINCUBATION); “inactive; negative” under setting [7]; “inactive; negative” under setting [8]; “inactive; negative” under setting [9]; “inactive; negative” under setting [10]. Moreover, the mutagenic call reads like this: under setting [11], “inactive; negative”; under setting [12], “inactive; negative”.

For `O=[N+]([O-])c1ccc2c(Cl)nsc2c1`, under setting [13], the mutagenic call was “active; positive”.

For `O=[N+]([O-])c1nc2ccccc2[nH]1`, under setting [13], the mutagenic call is “active; positive”.

Consider `COC1=C(N)C(=O)c2nc(-c3nc(C(=O)O)c(C)c(-c4ccc(OC)c(OC)c4O)c3N)ccc2C1=O`, for which the mutagenic call was “active; positive” (Test System: AMES SALMONELLA TYPHIMURIUM, Strain/Indicator: TA102, Metabolic Activation: NONE, Method: STANDARD PLATE); “active; positive” (Test System: AMES SALMONELLA TYPHIMURIUM, Strain/Indicator: TA2638, Metabolic Activation: NONE, Method: STANDARD PLATE); “active; positive” (Test System: AMES SALMONELLA TYPHIMURIUM, Strain/Indicator: TA2638A, Metabolic Activation: NONE, Method: STANDARD PLATE); “active; positive” (Test System: E. COLI, Strain/Indicator: WP2 (PKM101), Metabolic Activation: NONE, Method: STANDARD PLATE); “active; positive” (Test System: E. COLI, Strain/Indicator: WP2 UVRA (PKM101), Metabolic Activation: NONE, Method: STANDARD PLATE); “active; positive” (Test System: UDS HUMAN FIBROBLASTS, Strain/Indicator: THY INCORP (NON-S-PHASE), Metabolic Activation: NONE, Method: AUTORADIOGRAPHY).

On to `CCC(Cl)C(Cl)C(Cl)CC(Cl)C(Cl)C(C)Cl` (configuration not stated), for which the mutagenic call reads like this: (Test System: AMES SALMONELLA TYPHIMURIUM, Strain/Indicator: TA97, Metabolic Activation: HAMSTER, LIVER, S-9, AROCLOR 1254, Method: PREINCUBATION) “inactive; negative”; (Test System: AMES SALMONELLA TYPHIMURIUM, Strain/Indicator: TA97, Metabolic Activation: NONE, Method: PREINCUBATION) “inactive; negative”; (Test System: AMES SALMONELLA TYPHIMURIUM, Strain/Indicator: TA97, Metabolic Activation: RAT, LIVER, S-9, AROCLOR 1254, Method: PREINCUBATION) “inactive; negative”; under setting [1], “inactive; negative”; (Test System: AMES SALMONELLA TYPHIMURIUM, Strain/Indicator: TA98, Metabolic Activation: HAMSTER, LIVER, S-9, AROCLOR 1254, Method: PREINCUBATION) “inactive; negative”; under setting [2], “inactive; negative”. For the same compound, the mutagenic call is “inactive; negative” under setting [3]; “inactive; negative” (Test System: AMES SALMONELLA TYPHIMURIUM, Strain/Indicator: TA98, Metabolic Activation: RAT, LIVER, S-9, AROCLOR 1254, Method: PREINCUBATION); “inactive; negative” under setting [4]; “inactive; negative” (Test System: AMES SALMONELLA TYPHIMURIUM, Strain/Indicator: TA100, Metabolic Activation: HAMSTER, LIVER, S-9, AROCLOR 1254, Method: PREINCUBATION); “inactive; negative” under setting [5]; “inactive; negative” under setting [6]. The mutagenic call runs as follows: (Test System: AMES SALMONELLA TYPHIMURIUM, Strain/Indicator: TA100, Metabolic Activation: RAT, LIVER, S-9, AROCLOR 1254, Method: PREINCUBATION) “inactive; negative”; under setting [7], “inactive; negative”; (Test System: AMES SALMONELLA TYPHIMURIUM, Strain/Indicator: TA1535, Metabolic Activation: HAMSTER, LIVER, S-9, AROCLOR 1254, Method: PREINCUBATION) “inactive; negative”; under setting [8], “inactive; negative”; under setting [9], “inactive; negative”; (Test System: AMES SALMONELLA TYPHIMURIUM, Strain/Indicator: TA1535, Metabolic Activation: RAT, LIVER, S-9, AROCLOR 1254, Method: PREINCUBATION) “inactive; negative”. Further, the mutagenic call is “inactive; negative” under setting [10]; “inactive; negative” under setting [11]; “inactive; negative” under setting [12]; “active; positive” (Test System: MOUSE LYMPHOMA, Strain/Indicator: L5178Y (TK+/TK-), Metabolic Activation: NONE, Method: SUSPENSION/PLATE).

As for `N#Cc1cc([N+](=O)[O-])ccc1N=Nc1ccc(N(CCO)CCO)cc1`, the mutagenic call was “active; positive” under setting [13]; “active; positive” (Test System: AMES SALMONELLA TYPHIMURIUM, Strain/Indicator: TA98, Metabolic Activation: RAT, LIVER, S-9, AROCLOR 1254, Method: STANDARD PLATE); “active; positive” (Test System: AMES SALMONELLA TYPHIMURIUM, Strain/Indicator: TA100, Metabolic Activation: NONE, Method: STANDARD PLATE); “active; positive” (Test System: AMES SALMONELLA TYPHIMURIUM, Strain/Indicator: TA100, Metabolic Activation: RAT, LIVER, S-9, AROCLOR 1254, Method: STANDARD PLATE); “inactive; negative” (Test System: AMES SALMONELLA TYPHIMURIUM, Strain/Indicator: TA1535, Metabolic Activation: NONE, Method: STANDARD PLATE); “inactive; negative” (Test System: AMES SALMONELLA TYPHIMURIUM, Strain/Indicator: TA1535, Metabolic Activation: RAT, LIVER, S-9, AROCLOR 1254, Method: STANDARD PLATE). Besides, the mutagenic call is “active; positive” (Test System: AMES SALMONELLA TYPHIMURIUM, Strain/Indicator: TA1537, Metabolic Activation: NONE, Method: STANDARD PLATE); “active; positive” (Test System: AMES SALMONELLA TYPHIMURIUM, Strain/Indicator: TA1537, Metabolic Activation: RAT, LIVER, S-9, AROCLOR 1254, Method: STANDARD PLATE); “active; positive” (Test System: AMES SALMONELLA TYPHIMURIUM, Strain/Indicator: TA1538, Metabolic Activation: NONE, Method: STANDARD PLATE); “active; positive” (Test System: AMES SALMONELLA TYPHIMURIUM, Strain/Indicator: TA1538, Metabolic Activation: RAT, LIVER, S-9, AROCLOR 1254, Method: STANDARD PLATE); “inactive; negative” (Test System: CHINESE HAMSTER V-79, Strain/Indicator: V-79 (HGPRT)/6-THIOGUANINE, Metabolic Activation: RAT, LIVER, S-9, AROCLOR 1254); “inactive; negative” (Test System: CHINESE HAMSTER V-79, Strain/Indicator: V-79/6-THIOGUANINE, Metabolic Activation: NONE). In addition, the mutagenic call (Test System: UDS RAT HEPATOCYTES, Strain/Indicator: THY INCORP, Metabolic Activation: NONE, Method: AUTORADIOGRAPHY) is “inactive; negative”.
